# Data: patent US20170216360A1, “METHODS AND COMPOSITIONS FOR IMPROVING HOMING OF CELLS INCLUDING MESENCHYMAL STEM CELLS” (SANOFI, priority 2014, published 2017)
# Structures can show the parent of a compound that is named as a salt.
# Key:
# [1] = system: LPS-induced inflamed mouse ear; test: Ear thickness in LPS-induced ear inflammation after infusion of pretreated MSCs; assay type: in vivo
# Protocol: (§1) To determine the impact of small molecule pretreatment on MSC therapeutic potential, ear swelling was measured. As a baseline, we measured ear thickness of all mice to be used using a caliper (Mitutoyo Inc.) and found no difference. Each measurement was taken 3 times with the average value recorded, and care taken to ensure minimal compression. Inflammation was then induced by injection of 30 μg LPS in 30 μL 0.9% saline solution into the pinna of the left ear. 24 hours later, n=3 mice of each condition were infused with no MSCs, 10e6/20 g body weight MSCs pretreated for 24 hours with 0.1% DMSO, or 10e6/20 g body weight MSCs pretreated for 24 hours with 3.0 μM small molecule compound 1929. Upon 24 hours after cell infusion, ear thickness was measured using a caliper as before. To evaluate TNF-α secretion, inflammation and MSC treatment was performed as above with n=4-6 mice for each condition. Mice were sacrificed 24 hours after cell administration and both ears were harvested. Ears were then ground in ice-cold extraction buffer (RIPA with 0.5% Tween-20) using a homogenizer. Homogenates were transferred to 1.5 mL tubes, centrifuged at 13,000×g for 10 minutes at 4° C., and the supernatant was stored at −80° C. until analysis. The level of mouse TNF-α level in the samples was quantified using an anti-mouse TNF-α ELISA kit (Biolegend, San Diego, Calif.).
# TNF-α = TNF-α ELISA of ear homogenates after infusion of pretreated MSCs; assay type: in vivo, mouse
# Protocol: as §1
# MSCs = test: Cell viability assay, XTT; assay type: cell-based, human
# Protocol: Pre-confluent MSCs were incubated with Ro-31-8425 at the indicated concentrations for 24 h or 72 h and cell viability was assessed via an XTT assay according to manufacturer's instructions (ATCC).
# MSCs were pretreated with Ro-31-8425 for 24 h or 72 h, followed by quantification of MSC viability via XTT. (Y axis presents the percentage of viable cells compared to untreated control (cells incubated with 10% FBS-supplemented MEMa media), error bars represent standard deviation, n=3).
# [2] = system: CD11a surface expression on MSCs; test: CyTOF analysis of CD11a expression levels on MSCs; assay type: cell-based, human
# Protocol: To further confirm the screening results, the surface expression of CD11a was also examined by Time of Flight Mass Cytometry (CyTOF2, DVS Sciences) (Newell et al., 2013, Nat Biotechnol. 31(7):623-9). MSCs were treated with Ro-31-8425 as indicated and sample preparation was performed per manufacturer's instructions with slight modifications. Briefly, the harvested MSC pellet was first resuspended with Intercalator-103Rh solution (1 μM) in PBS to identify viable cells, then washed twice with MaxPar cell staining buffer and stained with 100 μL antibody cocktail (human Nd142-CD11a and Tb159-CD90, 1:200 dilution in staining buffer) for 30 min at room temperature. After two washes, the cells were further stained with 125 nM MaxPar Intercalator-Ir in MaxPar Fix and Perm buffer for 1-2 h with gentle shaking. Finally the fixed cells were thoroughly washed with ultrapure H2O 2O for three times (1000 g, 5 min each), resuspended in 300 μL H2O and filtered through a 40 μm Falcon cell strainer (Corning) prior to CyTOF data acquisition. The CyTOF data was analyzed with Cytobank on-line data analysis platform (website www cytobank.org).
# CD11a mRNA = CD11a mRNA analysis by qPCR in MSCs; assay type: cell-based, human; details: 3 μM
# Protocol: The mRNA levels of CD11a and CD18 in response to Ro-31-8425 pretreatment of MSCs were analyzed by qPCR. Specifically, MSCs were treated with Ro-31-8425 (3 μM) or vehicle control (0.1% DMSO) for 2 h, 4 h, 8 h, 14 h or 24 h. Cells were then trypsinized, washed with ice-cold PBS and pelleted (500 g for 5 min at 4° C.) at during the treatment and immediately stored at −80° C. RNA extraction was then performed. Briefly, the frozen cell pellet was crushed with a tissue pestle (Fisher Scientific) in the presence of 1 mL TRI RNA isolation reagent (Sigma Aldrich). Upon complete pellet dissociation, 0.2 mL chloroform was added and suspension was vortexed for 15 s, followed by incubation at ambient temperature for 10 min. The mixture was centrifuged at 15,000 g for 15 min at […], the resulting supernatant aqueous phase was removed, thoroughly mixed with 0.5 mL isopropanol (Sigma Aldrich) and further centrifuged (at 15,000 g for 10 min) to obtain the total RNA precipitates. The RNA pellets were washed twice in 75% ethanol, and air dried for 10 min at room temperature before being reconstituted with 20 uL ultrapure H2O. The quality and quantity of the total RNAs were measured and verified using Nanodrop ND-2000 Spectrophotometer (NanoDrop Products). Subsequently, equal amount of total RNA (2 μg) was reverse transcribed into cDNA using a QuantiTect reverse transcription kit (Qiagen). […]
# MSC secretome = test: Secretomic analysis of small molecule-primed MSCs (Bio-plex immunoassays); assay type: cell-based, human
structure (smiles),measurement,setting,value
"Cn1cc(C2=C(c3c4n(c5ccccc35)CCC(CN)C4)C(=O)NC2=O)c2ccccc21 (centres unmarked) [Compound 1929, 3-(8-aminomethyl-6,7,8,9-tetrahydro-pyrido[1,2-a]indol-10-yl)-4-(1-methyl-1H-indol-3-yl)-pyrrole-2,5-dione hydrochloride]",Effect on ear swelling relative to control MSCs,[1]; 24 hours post administration,over 3 ×
same,Reduction in ear thickness,"[1]; 24 hours post administration of pretreated MSCs, vs no MSC",20.0±5.3 μm
same,Effect in reducing ear swelling relative to vehicle control MSCs,[1]; 24 h post-administration,greater than 3 fold
same,Reduction of increased TNF-α levels in the inflamed ear,TNF-α; 24 h after pretreated MSCs,~50%
same,"TNF-alpha levels in the inflamed ear, fold reduction",TNF-α; 24 hours after pretreated MSCs,2.6±0.5 fold
same,MSC viability,"MSCs; 0.25 to 4 μM, 24 h pretreatment",did not significantly compromise cell viability
same,Concentration levels at which toxicity to MSCs was seen,MSCs; 72 h pretreatment,greater than 4 μM
same,Time over which the percentage of CD11a-positive MSCs was stable,[2]; 3 μM for 24 h,at least 4 days
same,Percentage of CD11a-positive MSCs,"[2]; 0.1, 1, 3 and 10 μM for 24 hours",dose-dependent increase
same,CD11a mRNA levels in MSCs,CD11a mRNA,significantly increased
same,Time of peak CD11a mRNA levels post incubation,CD11a mRNA,14 h
same,"Number of analytes with statistically significant changes, out of 48 secreted factors",MSC secretome,3
same,Mean of [IFN-g],"MSC secretome; 0.3 μM, 24 h, MSC donor 318006",11.0 pg/mL
same,Mean of [IL-1ra],"MSC secretome; 0.3 μM, 24 h, MSC donor 318006",16.5 pg/mL
same,Mean of [IL-6],"MSC secretome; 0.3 μM, 24 h, MSC donor 318006",451.3 pg/mL
same,Mean of [IL-8],"MSC secretome; 0.3 μM, 24 h, MSC donor 318006",26.9 pg/mL
same,Mean of [IL-12p70],"MSC secretome; 0.3 μM, 24 h, MSC donor 318006",13.3 pg/mL
same,Mean of [LIF],"MSC secretome; 0.3 μM, 24 h, MSC donor 318006",14.2 pg/mL
same,Mean of [MCP-1],"MSC secretome; 0.3 μM, 24 h, MSC donor 318006",26.4 pg/mL
same,Mean of [MIF],"MSC secretome; 0.3 μM, 24 h, MSC donor 318006",54.9 pg/mL
same,Mean of [VEGF],"MSC secretome; 0.3 μM, 24 h, MSC donor 318006",547.2 pg/mL
same,Mean of [IL-1ra],"MSC secretome; 3 μM, 24 h, MSC donor 318006",22.6 pg/mL
same,Mean of [LIF],"MSC secretome; 3 μM, 24 h, MSC donor 318006",10.8 pg/mL
same,Mean of [MIF],"MSC secretome; 3 μM, 24 h, MSC donor 318006",69.4 pg/mL
same,IL-8 level secreted by MSC,MSC secretome; 3 micromolar for 24 hours,downregulation
same,MCP-1 level secreted by MSC,MSC secretome; 3 micromolar for 24 hours,downregulation
same,SDF-1alpha level secreted by MSC,MSC secretome; 3 micromolar for 24 hours,upregulation
same,Fold change of analyte IL-6 upon pretreatment (vs. vehicle control),MSC secretome; MSC secretome,0.34 +/− 0.09
same,Fold change of analyte MCP-1 upon pretreatment (vs. vehicle control),MSC secretome; MSC secretome,0.54 +/− 0.09
